Experimental data taken from US20250302816A1, “DISRUPTION OF EPITHELIAL BARRIERS FOR MOLECULAR DELIVERY ENHANCEMENT OR EXTRACTION OF EXTRACELLULAR FLUIDS” (The University of Nottingham, priority 2022, published 2025).

Tested on: Calu-3 cell layer
Assay: Delivery of siRNA across Calu-3 cell layer (Transwell)
Assay type: cell-based, human
Conditions: 200 μM
Description: FIG. 10: Delivery of siRNA (19 bases) across Calu-3 cell layer is enhanced in the presence of 30C12 HSL (200 μM) assessed as recovered fraction from the basolateral chamber of a Transwell.

CCCCCCCCCC(=O)CC(=O)N[C@H]1CCOC1=O [Agent 3OC12-HSL, N-(3-oxododecanoyl) homoserine lactone]
delivery of siRNA (19 bases) across cell layer, recovered fraction from basolateral chamber: enhanced
